# Assay results taken from ChEMBL document CHEMBL3244346, “Synthesis of spiro[isobenzofuran-1(3H),4'-piperidines] as potential central nervous system agents. 4. Central nervous system depressants” (J Med Chem, 1978).
# Activity calls are given as the source filed them. The calls are words filed in the database; no cut-off is given here.
# Key:
# [1] = tested on: Rattus norvegicus; assay: Neuroleptic activity in Sprague-Dawley rat assessed as inhibition of Sidman avoidance at 20 mg/kg, ip relative to control; type: functional; settings: route intraperitoneal
# [2] = tested on: Rattus norvegicus; assay: Neuroleptic activity in ip dosed Long-Evans rat assessed as inhibition of pole-climb avoidance; type: functional
# [3] = tested on: Rattus norvegicus; assay: Neuroleptic activity in ip dosed Long-Evans rat assessed as increase in escape failure; type: functional
# [4] = tested on: Rattus norvegicus; assay: Non-specific toxicity in ip dosed Wistar rat assessed as inhibition of amphetamine-induced circling administered 60 mins prior to amphetamine challenge; type: organism-based; settings: in vivo, 1 h
# [5] = tested on: Rattus norvegicus; assay: Non-specific toxicity in ip dosed Wistar rat assessed as inhibition of d-amphetamine sulfate-induced stereotypy administered 1 hr prior to d-amphetamine sulfate challenge measured after 55 to 65 mins; type: organism-based; settings: in vivo
# [6] = tested on: Rattus norvegicus; assay: Neuroleptic activity in po dosed Sprague-Dawley rat assessed as inhibition of Sidman avoidance measured for 4 to 6 hrs; type: functional
# [7] = tested on: Canis familiaris; assay: Non-specific toxicity in Beagle dog assessed as inhibition of apomorphine hydrochloride-induced emesis at 0.5 mg/kg, po; type: organism-based; set-up: dose 0.5 mg/kg, route oral; settings: Canis lupus familiaris
# [8] = tested on: Canis familiaris; assay: Ratio of compound ED50 to haloperidol ED50 for non-specific toxicity in po dosed Beagle dog assessed as inhibition of apomorphine hydrochloride-induced emesis; type: organism-based, Canis lupus familiaris; settings: in vivo
# [9] = tested on: Rattus norvegicus; assay: Neuroleptic activity in ip dosed Sprague-Dawley rat assessed as inhibition of Sidman avoidance measured for 4 to 6 hrs; type: functional
# [10] = tested on: Canis familiaris; assay: Non-specific toxicity in po dosed Beagle dog assessed as inhibition of apomorphine hydrochloride-induced emesis; type: organism-based, Canis lupus familiaris; settings: in vivo
# [11] = tested on: Squirrel monkey; assay: Neuroleptic activity in squirrel monkey assessed as inhibition of Sidman avoidance at 10 mg/kg, po measured for 4 hrs; type: functional; settings: Saimiri sciureus, in Primates
# [12] = tested on: Rattus norvegicus; assay: Increase in amphetamine-induced circling in Wistar rat at 5 mg/kg, ip administered 60 mins prior to amphetamine challenge; type: functional; settings: route intraperitoneal
# [13] = tested on: Squirrel monkey; assay: Neuroleptic activity in squirrel monkey assessed as inhibition of Sidman avoidance at 2.5 mg/kg, po measured for 4 hrs; type: functional; settings: Saimiri sciureus, in Primates
# [14] = tested on: Rattus norvegicus; assay: Non-specific toxicity in Wistar rat assessed as inhibition of apomorphine hydrochloride-induced stereotypy at 25 mg/kg, sc administered 1 hr prior to apomorphine hydrochloride challenge measured after 5 to 20 mins; type: organism-based; set-up: dose 25 mg/kg, route subcutaneous; settings: in vivo
# [15] = tested on: Rattus norvegicus; assay: Neuroleptic activity in po dosed Long-Evans rat assessed as inhibition of pole-climb avoidance; type: functional
# [16] = tested on: Rattus norvegicus; assay: Neuroleptic activity in po dosed Long-Evans rat assessed as increase in escape failure; type: functional
# [17] = tested on: Squirrel monkey; assay: Neuroleptic activity in squirrel monkey assessed as inhibition of Sidman avoidance at 20 mg/kg, po measured for 4 hrs; type: functional; settings: Saimiri sciureus, in Primates
# [18] = tested on: Squirrel monkey; assay: Neuroleptic activity in squirrel monkey assessed as inhibition of Sidman avoidance at 5 mg/kg, po measured for 4 hrs; type: functional; settings: Saimiri sciureus, in Primates
# [19] = tested on: Squirrel monkey; assay: Neuroleptic activity in squirrel monkey assessed as inhibition of Sidman avoidance at 20 mg/kg, po measured for 4 hrs in presence of anticholinergic agent benztropine; type: functional, organism-based; set-up: dose 20 mg/kg; settings: Saimiri sciureus
# [20] = tested on: Squirrel monkey; assay: Neuroleptic activity in squirrel monkey assessed as inhibition of Sidman avoidance at 1 mg/kg, po measured for 4 hrs; type: functional; settings: Saimiri sciureus, in Primates
# [21] = tested on: Squirrel monkey; assay: Neuroleptic activity in squirrel monkey assessed as inhibition of Sidman avoidance at 0.75 mg/kg, po measured for 4 hrs; type: functional; settings: Saimiri sciureus, in Primates
# [22] = tested on: Rattus norvegicus; assay: Non-specific toxicity in sc dosed Wistar rat assessed as inhibition of apomorphine hydrochloride-induced stereotypy administered 1 hr prior to apomorphine hydrochloride challenge measured after 5 to 20 mins; type: organism-based; settings: in vivo
# [23] = species on record: Rattus norvegicus; assay: animal or person; settings: Sprague-Dawley, po, read-out: INH
# Description: Neuroleptic activity in Sprague-Dawley rat assessed as inhibition of Sidman avoidance at 1.25 mg/kg, po relative to control
# [24] = tested on: Rattus norvegicus; assay: Neuroleptic activity in Long-Evans rat assessed as inhibition of pole-climb avoidance at 5 mg/kg, ip relative to control; type: functional; settings: route intraperitoneal
Compound,ED50 [2] [mg/kg],ED50 [3] [mg/kg],ED50 [4] [mg/kg],ED50 [5] [mg/kg],ED50 [6] [mg/kg],ED50 [9] [mg/kg],ED50 [10] [mg/kg],also measured
CSc1ccc2c(c1)N(CCC1CCCCN1C)c1ccccc1S2 (configuration not stated) [THIORIDAZINE],13.8,> 60,13.3,15.8,–,–,–,inhibition in vivo at 20 mg/kg [1]: 15%
O=C(CCCN1CCC2(CC1)OC(c1ccc(F)cc1)c1ccc(F)cc12)c1ccc(F)cc1 (configuration not stated),18.6,> 40,9.7,–,2.2,–,–,inhibition at 0.5 mg/kg [7]: 50%; Ratio ED50 [8]: 10
CCCC(C)C1(CC)C(=O)N=C([O-])NC1=O.[Na+] (configuration not stated) [PENTOBARBITAL SODIUM],23.7,24.1,–,–,–,–,–,–
O=C(CCCN1CCC2(CC1)OC(c1ccccc1)c1ccccc12)c1ccc(F)cc1 (configuration not stated),8.6,> 40,2.6,–,4.8,6.2,0.15,–
COc1ccc2c(c1)C1(CCN(CCCC(=O)c3ccc(F)cc3)CC1)OC2c1ccccc1 (configuration not stated),–,–,–,–,> 10,–,–,inhibition in vivo at 10 mg/kg [11]: 77%
CN1C(=O)CN=C(c2ccccc2)c2cc(Cl)ccc21 [DIAZEPAM],13.4,24.5,–,–,–,–,–,–
COc1ccc(C2OC3(CCN(CCCC(=O)c4ccc(F)cc4)CC3)c3ccccc32)cc1 (configuration not stated),17.2,> 40,10.2,–,3,–,0.16,–
O=C(CCCN1CCC2(CC1)OC(c1ccc(Cl)cc1)c1ccccc12)c1ccc(F)cc1 (configuration not stated),> 20,–,–,–,–,> 10,> 10,Activity [12]: 47%
COc1ccc2c(c1)C(c1ccccc1)OC21CCN(CCCC(=O)c2ccc(F)cc2)CC1 (configuration not stated),9.8,> 40,9.9,6.97,–,9.5,> 1,inhibition in vivo at 2.5 mg/kg [13]: 29%; Ratio ED50 [8]: 10; Activity [14]: Non-toxic
O=C(CCCN1CCC2(CC1)OC(c1ccc(F)cc1)c1ccccc12)c1ccc(F)cc1 (configuration not stated),–,–,11.9,11.8,3.7,–,> 5,ED50 [15]: 4.3 mg/kg; ED50 [16]: 16.2 mg/kg; inhibition in vivo at 10 mg/kg [11]: 17%; inhibition in vivo at 20 mg/kg [17]: 90%; inhibition in vivo at 5 mg/kg [18]: 21%; inhibition [19]: inactive; Ratio ED50 [8]: 10; Activity [14]: Non-toxic
O=C(CCCN1CCC2(CC1)OC(c1ccccc1)c1ccc(F)cc12)c1ccc(F)cc1 (configuration not stated),0.95,31.1,4.6,–,–,2.7,0.047,–
O=C(CCCN1CCC(O)(c2ccc(Cl)cc2)CC1)c1ccc(F)cc1 [HALOPERIDOL],0.53,7.3,0.1,0.21,–,0.35,0.06,inhibition in vivo at 1 mg/kg [20]: 30%; inhibition in vivo at 0.75 mg/kg [21]: 2%; ED50 [22]: 0.2 mg/kg; inhibition in vivo at 1.25 mg/kg [23]: 50%
CN(C)CCCN1c2ccccc2Sc2ccc(Cl)cc21 [CHLORPROMAZINE],5.2,9,2.2,1.7,7.5,2.3,12.8,inhibition in vivo at 2.5 mg/kg [13]: 11%; inhibition in vivo at 5 mg/kg [18]: 54%; ED50 [22]: 5.4 mg/kg
O=C(CCCN1CCC2(CC1)OC(c1ccccc1)c1ccc(Cl)cc12)c1ccc(F)cc1 (configuration not stated),–,–,3.5,–,–,2.3,0.05,inhibition in vivo at 5 mg/kg [24]: 47%
